The results in this text go back to patent US20260364190A1, “ANTIBODY DRUG CONJUGATE PLATFORMS” (BEONE MEDICINES I GMBH, priority 2023, published 2026).

The structures appear in SMILES notation.

The subject of experiment [1] is A375 cells. Put plainly: Payload cellular killing in A375 cancer line. In kind it is cell-based, human. The settings on record: Cell Titer-Glo. As for the experimental part: A375 (ATCC, CRL-1619). […] The base medium for A375 is DMEM, high glucose, GlutaMAX™ Supplement (Gibco, 10566024). […] The cell line was grown in a humidified 5% CO2 atmosphere at 37 °C, and was regularly tested for the presence of mycoplasma with MycoAlert™ PLUS Mycoplasma Detection Kit (Lonza, LT07-710).
(§1) Payload cellular killing was assessed in A375 and Calu-6 cancer lines. Cells were seeded (A375 (1E3/well) or Calu-6 (2E3/well)) into a 96-well plate (Greiner: 655090), at 100 μl/well and incubated at 37 °C, 5% CO2, overnight. Fresh growth medium was added containing varying concentrations of compounds, 50 μl/well, and incubated at 37 °C, 5% CO2, for 6 days. The cell viability was detected by Cell Titer-Glo (Promega, G7573). 70 μL of CellTiter-Glo® Reagent was added to each well. The plates were allowed to incubate at room temperature for 10 minutes to stabilize the luminescent signal. The plates were analyzed with a microplate reader.
In general terms: ATP-based viability assays read luminescence as a measure of living cells.

Experiment [2] concerns Calu-6 cells. Put plainly: Payload cellular killing in Calu-6 cancer line. Type of experiment: cell-based. Particulars: 6 days, Cell Titer-Glo. As for the experimental part: Calu-6 (ATCC, HTB-56). […] The base medium for Calu-6 is Eagle's Minimum Essential Medium (ATCC, 30-2003). […] The cell line was grown in a humidified 5% CO2 atmosphere at 37 °C, and was regularly tested for the presence of mycoplasma with MycoAlert™ PLUS Mycoplasma Detection Kit (Lonza, LT07-710).
as §1

Usually EC50 stands for the concentration giving half of the maximal effect. As to `CC[C@@]1(O)C(=O)OCc2c1cc1n(c2=O)Cc2c-1nc1cc(F)c(C)c3c1c2C(CCCO)CC3` (stereo partly drawn) [P3, (9S)-9-ethyl-5-fluoro-9-hydroxy-1-(3-hydroxypropyl)-4-methyl-1,2,3,9,12,15-hexahydro-10H,13H-benzo[de]pyrano[3′,4′:6,7]indolizino[1,2-b]quinoline-10,13-dione], the “Emax (%)” value in experiment [1] (6 days) was found to be 100.0%; in experiment [2], 99.2%. The molecule also displayed an EC50 in experiment [2] (Homo sapiens) of 0.2 nM.
The Emax is the size of the effect at its maximum, as opposed to the concentration needed. In the case of `CC[C@@]1(O)C(=O)OCc2c1cc1n(c2=O)Cc2c-1nc1cc3c(c4c1c2[C@@H](NC(=O)OCCO)CC4)OCO3` [P10, 2-hydroxyethyl ((1S,10S)-10-ethyl-10-hydroxy-11,14-dioxo-2,3,10,11,14,16-hexahydro-1H,13H-benzo[de][1,3]dioxolo[4,5-g]pyrano[3′,4′:6,7]indolizino[1,2-b]quinolin-1-yl)carbamate], in experiment [1] (Homo sapiens, A-375, 6 days), the midpoint of the response, the EC50, lay at 2.2 nM and the Emax was 100%. In experiment [2] (Homo sapiens), this molecule had an EC50 of 0.7 nM and an Emax of 97.4%.
As to `CC[C@@]1(O)C(=O)OCc2c1cc1n(c2=O)Cc2c-1nc1cc(F)c(C)c3c1c2C(CCO)CC3` (stereo partly drawn) [P5, (9S)-9-ethyl-5-fluoro-9-hydroxy-1-(2-hydroxyethyl)-4-methyl-1,2,3,9,12,15-hexahydro-10H,13H-benzo[de]pyrano[3′,4′:6,7]indolizino[1,2-b]quinoline-10,13-dione], the “Emax (%)” value in experiment [1] (6 days) is on record as 100.0%; in experiment [2] it was 98.1%.
Take `CC[C@@]1(O)C(=O)OCc2c1cc1n(c2=O)Cc2c-1nc1cc(F)c(C)c3c1c2C(CN(C)CCO)CC3` (stereo partly drawn) [P11, (9S)-9-ethyl-5-fluoro-9-hydroxy-1-(((2-hydroxyethyl)(methyl)amino)methyl)-4-methyl-1,2,3,9,12,15-hexahydro-10H,13H-benzo[de]pyrano[3′,4′:6,7]indolizino[1,2-b]quinoline-10,13-dione]: the EC50 in experiment [1] (Homo sapiens, A-375, 6 days) worked out at 0.8 nM. The molecule further came in with an Emax in experiment [2] (Homo sapiens) of 98%.
For `CC[C@@]1(O)C(=O)OCc2c1cc1n(c2=O)Cc2c-1nc1cc3c(c4c1c2[C@@H](NC(=O)C(C)(F)CO)CC4)OCO3` (stereo partly drawn) [P9, N-((1S,10S)-10-ethyl-10-hydroxy-11,14-dioxo-2,3,10,11,14,16-hexahydro-1H,13H-benzo[de][1,3]dioxolo[4,5-g]pyrano[3′,4′:67]indolizino[1,2-b]quinolin-1-yl)-2-fluoro-3-hydroxy-2-methylpropanamide], the EC50 in experiment [1] (6 days) stood at 2.1 nM; in experiment [2], 0.9 nM. The “Emax (%)” value in experiment [1] (6 days) is reported as 100.0%; in experiment [2], 98.3%.
